# According to PMC7162492, “Pharmacological and pharmacokinetic profile of the novel ocular hypotensive prodrug CKLP1 in Dutch-belted pigmented rabbits” (PLoS ONE, 2020):
# Values joined by “and” are separate entries in the source; they are usually repeats but may differ in a detail not shown here. Equal entries are not always repeated. “Also recorded” adds a separate entry of the source.
# Assays:
# [1] = tested on: IOP in Dutch-belted pigmented rabbits; experiment: IOP measurement by rebound tonometer during 90 days of topical CKLP1; type: in vivo
# Excerpt: (§1) All experiments with animals were pre-approved by the Institutional Animal Care and Use Committee of the Mayo Clinic, Rochester, MN and adhered to the recommendations in the Guide for the Care and use of Laboratory Animals of the National Institutes of Health, and the tenets of the ARVO Statement for the Use of Animals in Vision Research. Female Dutch-belted pigmented rabbits (age 7 months) were obtained from Covance Research Products, Inc. (Denver, PA). Rabbits were housed in pairs and kept in a climate controlled room with 12 h light and dark cycles. Animals had unrestrained access to water and standard rabbit food pellets at all times. Upon receipt, animals were acclimated for at least 5 days before initiation of the experiment. IOP was measured with a handheld rebound tonometer (Icare Tonovet, Colonial Medical Supply, Franconia, NH, USA) in conscious and minimally restrained, non-anesthetized rabbits as previously described. Briefly, daily IOP was calculated from the average of 3 independent IOP measurements at 3 different time points each day. These time points corresponded to 1 h, 4 h and 23 h post treatment on any given day. Rabbits that needed to be handled for IOP were subjected to sham IOP measurements for two days prior to initiation of experiment. Rabbits (n = 3) were injected intravenously through the right ear vein with CKLP1 as a bolus dose equal to 0.25 mg/kg body weight. Additional rabbits were treated topically through instillation of 50 μl eye drops of a 10 mM (4.1 mg/ml) solution of CKLP1 in sterile PBS. Topical CKLP1 application was continued once daily (9:30 am every day) for either 1 (n = 3), 4 (n = 3), 8 (n = 3) or 90 days (n = 6). In the 1, 4 and 8 day groups, drug was added to both eyes, whereas in the 90 day group, CKLP1 was added to one eye while the contralateral eye received vehicle (PBS, Corning, Manassas, VA).
# IOP values are represented as mean ± standard deviation. IOP differences between treated and control eyes were compared using two-tailed paired Student’s t-test. Pharmacokinetic parameters (Cmax, Tmax, AUC and concentration of CKLP1 and levcromakalim) across various days following treatment were compared with one-way ANOVA. Criterion for statistically significant difference of means was set at p<0.05. Statistical analyses were performed using Microsoft Excel and its data analysis add-on feature.
# [2] = tested on: phosphatases; experiment: In vitro cleavage of CKLP1 by phosphatases (unpublished data); type: in vitro ADME
# [3] = tested on: Dutch-belted pigmented rabbits; experiment: Histology of tissues at necropsy after 90 days of topical CKLP1; type: in vivo; details: topical CKLP1 once daily, masked veterinary pathologist
# Excerpt: All experiments with animals were pre-approved by the Institutional Animal Care and Use Committee of the Mayo Clinic, Rochester, MN and adhered to the recommendations in the Guide for the Care and use of Laboratory Animals of the National Institutes of Health, and the tenets of the ARVO Statement for the Use of Animals in Vision Research. Female Dutch-belted pigmented rabbits (age 7 months) were obtained from Covance Research Products, Inc. (Denver, PA). Rabbits were housed in pairs and kept in a climate controlled room with 12 h light and dark cycles. Animals had unrestrained access to water and standard rabbit food pellets at all times. Upon receipt, animals were acclimated for at least 5 days before initiation of the experiment. IOP was measured with a handheld rebound tonometer (Icare Tonovet, Colonial Medical Supply, Franconia, NH, USA) in conscious and minimally restrained, non-anesthetized rabbits as previously described. Briefly, daily IOP was calculated from the average of 3 independent IOP measurements at 3 different time points each day. […]
# To assess cell and tissue morphology following CKLP1 treatment for 90 days, necropsy was performed on all 6 treated rabbits. Representative hematoxylin and eosin stained sections from 34 tissues were isolated, processed and assessed in a masked manner by a certified veterinary pathologist. […]
# [4] = Tissue and fluid distribution after 90 days of daily topical CKLP1 (LC-MS/MS); type: in vivo, Dutch-belted pigmented rabbits; details: topical eye drops 10 mM CKLP1, 90 consecutive days
# Experimental: LC-MS/MS analysis of all fluids were performed using a Waters (Milford, MA) Acquity UPLC BEH C18 column (1.7 μm, 2.1 x 50 mm) with an Agilent EC-C18 pre-column (2.7 μm, 2.1 x 5 mm) and a gradient elution program containing ultra-pure water and acetonitrile with 2.5 mM ammonium formate, at a flow rate of 0.2 ml/min. Flavopiridol was used as an internal standard. The column and auto-sampler temperatures were maintained at 40°C and 4°C, respectively. Source parameters were capillary voltage, 2.6 kV; source temperature, 150°C; desolvation temperature, 500°C; cone gas flow, 150 L/h; and desolvation gas flow, 800 L/h. The cone voltages and collision energies for CKLP1, levcromakalim and flavopiridol were determined by MassLynx-Intellistart software, v4.1, and were 32, 34 and 72 V (cone) and 20, 14 and 30 eV (collision), respectively. The retention times were 4.5 minutes for CKLP1, 5.9 minutes for levcromakalim and 5.7 minutes for flavopiridol.
# To validate accurate measurement of CKLP1 and levcromakalim, known concentrations of CKLP1 (5, 10, 25, 50, 100, 250, 500 ng/ml) and levcromakalim (1, 5, 10, 25, 50, 100, 250 ng/ml) were added to human plasma (obtained from the Mayo Clinic Division of Transfusion Medicine under an Institutional Review Board approved protocol) to make calibration curves. Quality control was determined for each run by using known quantities of CKLP1 and levcromakalim to verify that the instrument recorded values consistent with the established standard curve. The effect of carryover was evaluated by injecting blank samples before and after running the standard samples for calibration curves. Unknown samples with signal to noise ratios >10 were recorded as acceptable concentrations. Samples with signal to noise ratios <10 were reported as not detectable (ND). Controls consisted of a double blank (without analytes and internal standard) and a single blank (only internal standard). The linearity of the calibration curves was determined by plotting the ratios of analytes to internal standard peak areas. The curve was fitted by least squares regression with a 1/x weighting for both CKLP1 and levcromakalim. Data was collected from 3–6.4 minutes for CKLP1 and 4–8 minutes for both levcromakalim and flavopiridol. Waters MassLynx Intellistart software v4.1 was used for analysis.
# as §1, with “Topical CKLP1 application was continued once daily (9:30 am every day) for either 1 (n = 3), 4 (n = 3), 8 (n = 3) or 90 days (n = 6). In the 1, 4 and 8 day groups, drug was added to both eyes, whereas in the 90 day group, CKLP1 was added to one eye while the contralateral eye received vehicle (PBS, Corning, Manassas, VA).” left out
# [5] = 10 mM CKLP1 eye drop daily, 90 days
substance,measurement,setting,value
"sodium [CKLP1, sodium [(3S,4R)-6-cyano-2,2-dimethyl-4-(2-oxopyrrolidin-1-yl)-chroman-3-yl phosphate]]",IOP drop in the treated eye compared to baseline,[1]; [5],11.4 ± 4.7% and 11.4%
same,IOP reduction in treated eye compared to contralateral vehicle treated eye,[1]; [5],14.1 ± 1.0%
same,IOP absolute change in treated eyes compared to control eyes,"[1]; 10 mM CKLP1 eye drop daily, 90 days, n = 6",2.4 ± 0.4 mmHg
same,IOP in the treated eye,"[1]; 10 mM CKLP1 eye drop daily, 90 days, baseline 16.5 ± 0.7",14.6 ± 1.0 mm Hg
same,Average IOP in treated eyes post treatment (washout group),"[1]; after cessation of 90-day treatment, n = 3, baseline 16.5 ± 0.7",15.6 ± 0.6 mm Hg
same,Cleavage by phosphatases to cromakalim in vitro,[2],never completely cleaved
same,Histological changes in tissues,[3],No observable histological changes; also recorded: did not show any observable histological changes; also recorded: No observable differences in histology
same,Concentration in Brain,[4],not detected
same,Concentration in Heart,[4],not detected
same,Concentration in Kidney,[4],15.8 ±1.8 ng/g and 15.8 ± 1.8 (n = 6/6) ng/g
same,Concentration in Muscle,[4],not detected
same,Concentration in Plasma,[4],no detectable levels
same,Concentration in aqueous humor,[4],undetectable
same,Concentration in vitreous humor,[4],undetectable
